Assay results: patent US8367843B2, “Phenol derivative” (Fuji Yakuhin Co., Ltd., priority 2009, dated 2013)

What was measured:
Assay type in all cases: in vivo
[1] = Concentration of unchanged compound in urine in rat; conditions: 3 mg/kg oral, fasted male Wistar/ST rats, urine collected for 4 hours after administration, HPLC
Method: Concentration of Unchanged Compound in Urine in Rat
A test substance suspended in 0.5% MC was orally administered to two male Wistar/ST rats fasted for about 16 hours in a dose of 3 mg/kg. Immediately after administration, urine was collected for 4 hours. After completion of collection of urine, urine remaining in the bladder was completely excreted by pressing the abdomen of the rat. The concentration of an unchanged compound in urine was measured by HPLC and expressed by a molar concentration (μM).

[2] = tested on: male Wistar/ST rats (pyrazinamide model); assay: Uricosuric action in rat pyrazinamide model; conditions: urinary uric acid/creatinine ratio as percentage to control, test substance 30 mg/kg oral, 30 min after pyrazinamide 400 mg/kg, urine collected 2 to 3 hours after administration, read-out: Uricosuric action (control = 100)
Method: Uricosuric Action in Rat Pyrazinamide Model
Pyrazinamide suspended in a 0.5% methyl cellulose solution (0.5% MC) was orally administered to 7- and 8-week-old male Wistar/ST rats (4 rats per group) fasted for about 16 hours in a dose of 400 mg/kg. After 30 minutes, a test substance suspended in 0.5% MC was orally administered in a dose of 30 mg/kg, and urine was collected for 1 hour in a range from 2 to 3 hours after administration. At the beginning of collection of urine and after completion of collection of urine, rats were forced to urinate by pressing the abdomen of the rat. The concentration of uric acid and that of creatinine in urine were measured by a kit, and a ratio of the concentration of uric acid to that of creatinine was used as an indicator of a uricosuric action. The action of each test substance was expressed by percentage to control.

[3] = tested on: male Wistar/ST rats (pyrazinamide model); assay: Uricosuric action in rat pyrazinamide model; conditions: po, as above, but test substance 100 mg/kg

Row | Compound | Concentration of unchanged compound in urine [1] [µM] | response vs control in vivo at 30 mg/kg [2] [%] | response vs control in vivo at 100 mg/kg [3] [%]
1 | CCc1oc2ccccc2c1C(=O)c1cc(Br)c(O)c(Br)c1 [Benzbromarone, reference compound] | 0 | 114 | 
2 | O=C(c1cc(Cl)c(O)c(Cl)c1)N1CS(=O)(=O)c2ccccc21 [Example 1, 3-(3,5-dichloro-4-hydroxybenzoyl)-1,1-dioxo-2,3-dihydro-1,3-benzothiazole] | 9.8 | 169 | 
3 | N#Cc1cc(C(=O)N2CS(=O)(=O)c3ccccc32)cc(Cl)c1O [Example 7, 3-(3-chloro-5-cyano-4-hydroxybenzoyl)-1,1-dioxo-2,3-dihydro-1,3-benzothiazole] | 125 | 178 | 
4 | CCc1cc(C(=O)N2CS(=O)(=O)c3ccccc32)cc(C#N)c1O [Example 12, 3-(3-cyano-5-ethyl-4-hydroxybenzoyl)-1,1-dioxo-2,3-dihydro-1,3-benzothiazole] | 15.8 | 187 | 
5 | N#Cc1cc(C(=O)N2CS(=O)(=O)c3ccccc32)cc(C2CC2)c1O [Example 13, 3-(3-cyano-5-cyclopropyl-4-hydroxybenzoyl)-1,1-dioxo-2,3-dihydro-1,3-benzothiazole] | 3.9 | 172 | 
6 | C#Cc1cc(C(=O)N2CS(=O)(=O)c3ccccc32)cc(C#N)c1O [Example 14, 3-(3-cyano-5-ethynyl-4-hydroxybenzoyl)-1,1-dioxo-2,3-dihydro-1,3-benzothiazole] | 119 | 164 | 
7 | CSc1cc(C(=O)N2CS(=O)(=O)c3ccccc32)cc(C#N)c1O [Example 15, 3-(3-cyano-4-hydroxy-5-methylsulfanylbenzoyl)-1,1-dioxo-2,3-dihydro-1,3-benzothiazole] | 68.6 | 204 | 
8 | O=C(c1cc(Cl)c(O)c(C(F)(F)F)c1)N1CS(=O)(=O)c2ccccc21 [Example 18, 3-(3-chloro-4-hydroxy-5-trifluoromethylbenzoyl)-1,1-dioxo-2,3-dihydro-1,3-benzothiazole] | 1 | 202 | 
9 | O=C(c1cc(F)c(O)c(Cl)c1)N1CS(=O)(=O)c2ccccc21 [Example 19, 3-(3-chloro-5-fluoro-4-hydroxybenzoyl)-1,1-dioxo-2,3-dihydro-1,3-benzothiazole] | 55.2 | 129 | 
10 | CSc1cc(C(=O)N2CS(=O)(=O)c3ccccc32)cc(Cl)c1O [Example 21, 3-(3-chloro-4-hydroxy-5-methylsulfanylbenzoyl)-1,1-dioxo-2,3-dihydro-1,3-benzothiazole] | 1.9 | 120 | 
11 | CCSc1cc(C(=O)N2CS(=O)(=O)c3ccccc32)cc(C#N)c1O [Example 34, 3-(3-cyano-5-ethylsulfanyl-4-hydroxybenzoyl)-1,1-dioxo-2,3-dihydro-1,3-benzothiazole] | 23.5 | 208 | 
12 | CCCN(CCC)S(=O)(=O)c1ccc(C(=O)O)cc1 [Probenecid, reference compound] | 0 | 111 | 171

Further lines, with some results ahead:

Row | Concentration of unchanged compound in urine [1] [µM] | Compound | response vs control in vivo at 30 mg/kg [2] [%] | response vs control in vivo at 100 mg/kg [3] [%]
13 | 51.8 | N#Cc1cc(C(=O)N2CS(=O)(=O)c3ccccc32)cc(C(F)(F)F)c1O [Example 4, 3-(3-cyano-4-hydroxy-5-trifluoromethylbenzoyl)-1,1-dioxo-2,3-dihydro-1,3-benzothiazole] | 201 | 
14 | 1.1 | N#Cc1cc(C(=O)N2CSc3ccccc32)cc(C(F)(F)F)c1O [Example 5, 3-(3-cyano-4-hydroxy-5-trifluoromethylbenzoyl)-2,3-dihydro-1,3-benzothiazole] | 136 | 
15 | 30.6 | CN(C)C(=O)c1cc(C(=O)N2CS(=O)(=O)c3ccccc32)cc(C(F)(F)F)c1O [Example 27, 3-(3-dimethylcarbamoyl-4-hydroxy-5-trifluoromethylbenzoyl)-1,1-dioxo-2,3-dihydro-1,3-benzothiazole] | 146 | 
16 | 1.5 | CC(C)Sc1cc(C(=O)N2CS(=O)(=O)c3ccccc32)cc(C#N)c1O [Example 35, 3-(3-cyano-4-hydroxy-5-isopropylsulfanylbenzoyl)-1,1-dioxo-2,3-dihydro-1,3-benzothiazole] | 140 | 
17 | 16.4 | N#Cc1cc(C(=O)N2CS(=O)(=O)c3ccc(C(F)(F)F)cc32)cc(C(F)(F)F)c1O [Example 38, 3-(3-cyano-4-hydroxy-5-trifluoromethylbenzoyl)-1,1-dioxo-5-trifluoromethyl-2,3-dihydro-1,3-benzothiazole] | 180 | 
